Converted amounts (≈) assume the structure as drawn.
Assays:
Type in all cases: functional
Fusarium verticillioides = assay: Antimicrobial activity against Fusarium verticillioides after 48 hrs by broth microdilution assay
Fusarium solani = assay: Antimicrobial activity against Fusarium solani after 48 hrs by broth microdilution assay
Fusarium proliferatum = assay: Antimicrobial activity against Fusarium proliferatum after 48 hrs by broth microdilution assay
Fusarium oxysporum = assay: Antimicrobial activity against Fusarium oxysporum after 48 hrs by broth microdilution assay
Fusarium subglutinans = assay: Antimicrobial activity against Fusarium subglutinans after 48 hrs by broth microdilution assay

Structure (SMILES) | MIC (Fusarium verticillioides) | MIC (Fusarium solani) | MIC (Fusarium proliferatum) | MIC (Fusarium oxysporum) | MIC (Fusarium subglutinans)
CC[C@@H]([C@H](C)O)n1ncn(-c2ccc(N3CCN(c4ccc(OC[C@@H]5CO[C@@](Cn6cncn6)(c6ccc(F)cc6F)C5)cc4)CC3)cc2)c1=O [POSACONAZOLE] | 0.46 µg/mL (≈ 0.656 µM) | 15.2 µg/mL (≈ 21.7 µM) | 6.4 µg/mL (≈ 9.13 µM) | 2.7 µg/mL (≈ 3.85 µM) | 10.8 µg/mL (≈ 15.3 µM)
C[C@@H]1[C@H](O)[C@@H](C)/C=C/C=C/C=C/C=C/C=C/C=C/C=C/[C@H](O[C@@H]2O[C@H](C)[C@@H](O)[C@H](N)[C@@H]2O)C[C@@H]2O[C@](O)(C[C@@H](O)C[C@@H](O)[C@H](O)CC[C@@H](O)C[C@@H](O)CC(=O)O[C@H]1C)C[C@H](O)[C@H]2C(=O)O [AMPHOTERICIN B] | 1.53 µg/mL (≈ 1.66 µM) | 1.25 µg/mL (≈ 1.35 µM) | 1.7 µg/mL (≈ 1.84 µM) | 2.3 µg/mL (≈ 2.49 µM) | 3.3 µg/mL (≈ 3.57 µM)
C[C@@H](c1ncncc1F)[C@](O)(Cn1cncn1)c1ccc(F)cc1F [VORICONAZOLE] | 1.74 µg/mL (≈ 4.98 µM) | 9.21 µg/mL (≈ 26.4 µM) | 4.2 µg/mL (≈ 12 µM) | 4 µg/mL (≈ 11.5 µM) | 5.6 µg/mL (≈ 16 µM)
CCC(C)n1ncn(-c2ccc(N3CCN(c4ccc(OCC5COC(Cn6cncn6)(c6ccc(Cl)cc6Cl)O5)cc4)CC3)cc2)c1=O (stereo not given) [ITRACONAZOLE] | 3.33 µg/mL (≈ 4.72 µM) | > 16 µg/mL | > 16 µg/mL | > 16 µg/mL | 10.8 µg/mL (≈ 15.3 µM)
